{
  "source": "patent US12480089B2",
  "about": "“Antiviral treatment comprising Blis containing probiotic products” (BLIS TECHNOLOGIES LIMITED, priority 2020, dated 2025)",
  "format_in_all_cases": "cell-based",
  "key": {"[1]": {"system": "SARS-CoV-2, USA-WA1/2020 strain"}, "[2]": {"system": "Influenza A virus H3N2", "assay": "Neutral red CPE assay, Influenza A in MDCK cells", "conditions": "strain samples: resuspension medium DMEM, time to produce antiviral activity 6", "procedure": "The antiviral activity of S. salivarius sample preparations were evaluated against severe acute respiratory syndrome coronavirus 2 (SARS-CoV-2) and Influenza A virus H3N2 in neutral red (NR) assays to evaluate inhibition of viral-induced cytopathic effect (CPE).\nNeutral red assay: Samples were received frozen on dry ice and stored at −20° C. upon arrival. All 10 samples were serially diluted in test medium using 4 1:2 dilutions so that the starting (high) test concentration was 50% sample. Each dilution was added to 5 wells of a 96-well plate with 80-90% confluent Vero 76 (SARS-CoV-2) or MDCK (Influenza) cells.\nThree wells of each dilution were infected with virus, and two wells remained uninfected as toxicity controls. On each plate, six untreated wells were infected as virus controls, and six untreated wells were left uninfected to use as cell controls.\nViruses were diluted to a specific 50% cell culture infectious dose (CCID50) per mL to achieve the lowest possible multiplicity of infection (MOI) that would yield >80% cytopathic effect (CPE) within 3-5 days. […]\nSupernatant dye was removed, wells rinsed with PBS, and the incorporated dye was extracted in 50:50 Sorensen citrate buffer/ethanol for >30 minutes and the optical density was read on a spectrophotometer at 540 nm. […]"}, "[3]": {"system": "RSV (A2 strain)", "conditions": "MA-104, DMEM, max CPE day 6"}, "[4]": {"system": "influenza B (Brisbane/60/2008 strain)", "assay": "Neutral red CPE assay, influenza B in MDCK cells", "conditions": "DMEM + trypsin + EDTA, max CPE day 3", "procedure": "K12 and M18 were tested for in vitro antiviral activity against RSV (A2 strain) and influenza B (Brisbane/60/2008 strain).\nSamples were serially diluted using four 2-fold dilutions in media so that the starting (high) test concentration was 50%. Media for MDCK cells included DMEM+10 U/ml trypsin+1 ug/mL EDTA. Each dilution was added to 5 wells of a 96-well plate with 80-100% confluent cells. Three wells of each dilution were infected with virus, and two wells remained uninfected as toxicity controls. Six wells were infected and untreated as virus controls, and six wells were uninfected and untreated as cell controls. A positive control compound, ribavirin, was tested in parallel. Plates were incubated at 37±2° C., 5% CO2.\nOnce untreated virus control wells reached maximum CPE on the day indicated in the table below, plates were stained with neutral red dye for approximately 2 hours (±15 minutes). Supernatant dye was removed and wells rinsed with PBS, and the incorporated dye was extracted in 50:50 Sorensen citrate buffer/ethanol for >30 minutes and the optical density was read on a spectrophotometer at 540 nm.\nThe selective index (SI) is the CC50 divided by EC50."}},
  "data": [
    {"smiles": "CCO", "note": "[Ethanol]", "values": [
      {"measurement": "Round 1 virus titer", "setting": "[1]; 30-minute contact at room temperature, 90% preparation and 10% virus solution, virus control 4.2", "result": 1.1, "unit": "log 10 CCID50 per 0.1 mL"},
      {"measurement": "Round 2 Virus titer", "setting": "[1]; 30-minute contact at room temperature, 90% preparation and 10% virus stock, virus control 4.0", "result": "<0.67", "unit": "log 10 CCID50 per 0.1 mL"},
      {"measurement": "Log Reduction value", "setting": "[1]; Round 2, compared to virus control", "result": 3.33}
    ]},
    {"smiles": "NC(=O)c1ncn([C@@H]2O[C@H](CO)[C@@H](O)[C@H]2O)n1", "note": "[Ribavirin, ribavirin]", "values": [
      {"measurement": "SI Index", "setting": "[2]", "result": ">590"},
      {"measurement": "SI Index", "setting": "[3]", "result": 14},
      {"measurement": "SI Index", "setting": "[4]", "result": ">320"}
    ]}
  ]
}
